The results in this text go back to paper PMC5809120 (Journal of the American Chemical Society, 2018).

T1: PtNTT2(66-575) (Phaeodactylum tricornutum, UniProt B7FWL8)
T1 sequence (B7FWL8 66-575): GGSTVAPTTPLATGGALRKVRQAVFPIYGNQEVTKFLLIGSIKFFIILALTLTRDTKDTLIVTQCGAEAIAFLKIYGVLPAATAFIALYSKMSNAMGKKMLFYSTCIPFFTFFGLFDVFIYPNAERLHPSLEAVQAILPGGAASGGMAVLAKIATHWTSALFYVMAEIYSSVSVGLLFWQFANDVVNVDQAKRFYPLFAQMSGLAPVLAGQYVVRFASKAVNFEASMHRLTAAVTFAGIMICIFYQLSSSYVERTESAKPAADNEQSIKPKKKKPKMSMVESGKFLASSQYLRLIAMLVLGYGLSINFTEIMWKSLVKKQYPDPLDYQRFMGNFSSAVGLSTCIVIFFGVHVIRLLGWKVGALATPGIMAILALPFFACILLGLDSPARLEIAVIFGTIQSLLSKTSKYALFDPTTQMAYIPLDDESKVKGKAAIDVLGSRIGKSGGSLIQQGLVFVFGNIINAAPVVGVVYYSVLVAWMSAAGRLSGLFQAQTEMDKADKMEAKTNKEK

B1: PtNTT2(66-575) (Phaeodactylum tricornutum CCAP 1055/1) (protein)
chain: T1 sequence (B7FWL8 66-575)

In the first series the target is T1, PtNTT2(66-575). Put plainly: inhibition of [α-32P]ATP uptake into E. coli YZ2 cells. In kind it is cell-based. The note with it: read-out: % inhibition at 500 μM.
Broadly, the inhibition is the drop in the measured response relative to a control, in per cent. In the case of `Nc1nc(=O)n([C@@H]2O[C@H](COP(=O)(O)OP(=O)(O)OP(=O)(O)O)[C@@H](O)[C@H]2O)cc1I` [5-ICTP], the inhibition at 500 µM came out at 96.6 ± 1.3%. On to `Nc1nc(=O)n([C@H]2C[C@H](O)[C@@H](COP(=O)(O)OP(=O)(O)OP(=O)(O)O)O2)cc1I` [5-IdCTP], for which the inhibition at 500 µM was 73.6 ± 1.8%. Consider `Nc1nc(=O)n([C@@H]2O[C@H](COP(=O)(O)OP(=O)(O)OP(=O)(O)O)[C@@H](O)[C@H]2O)cc1CO` [5-hmCTP], for which the inhibition at 500 µM is 76.3 ± 2.9%. As for `Nc1nc2c(ncn2COCCOP(=O)(O)OP(=O)(O)OP(=O)(O)O)c(=O)[nH]1` [ACVTP], the inhibition at 500 µM was determined as 68.6 ± 5.5%. As to `Cc1cn([C@H]2C[C@H](N=[N+]=[N-])[C@@H](COP(=O)(O)OP(=O)(O)OP(=O)(O)O)O2)c(=O)[nH]c1=O` [AZTTP], the inhibition at 500 µM was 56.9 ± 12%. `Nc1ccn([C@@H]2O[C@H](COP(=O)(O)OP(=O)(O)OP(=O)(O)O)[C@@H](O)[C@@H]2O)c(=O)n1` [Ara-CTP]: the inhibition at 500 µM worked out at 81.3 ± 5.2%.

For the molecule `Nc1nc2c(ncn2[C@@H]2O[C@H](COP(=O)(O)OP(=O)(O)OP(=O)(O)O)[C@@H](O)[C@@H]2O)c(=O)[nH]1` [Ara-GTP], the inhibition at 500 µM amounted to 47.8 ± 7.9%.

Turning to `Nc1ccn([C@@H]2O[C@H](COP(=O)(O)OP(=O)(O)OP(=O)(O)O)[C@@H](O)[C@H]2O)c(=O)n1` [CTP], the inhibition at 500 µM is 70.5 ± 4.9%. The same measure, in the same setting: then `Nc1nc2c(ncn2[C@@H]2O[C@H](COP(=O)(O)OP(=O)(O)OP(=O)(O)O)[C@@H](O)[C@H]2O)c(=O)[nH]1` [GTP], with 60.4 ± 1.4%. Consider `Nc1ccn([C@H]2C[C@H](O)[C@@H](COP(=O)(O)OP(=O)(O)OP(=O)(O)O)O2)c(=O)n1` [dCTP], for which the inhibition at 500 µM amounted to 76.3 ± 2.8%. With `Nc1nc2c(ncn2[C@H]2C[C@H](O)[C@@H](COP(=O)(O)OP(=O)(O)OP(=O)(O)O)O2)c(=O)[nH]1` [dGTP], the inhibition at 500 µM is 55.3 ± 3.6%.

Substrate in a further series: Nc1ncnc2c1ncn2[C@@H]1O[C@H](COP(=O)(O)OP(=O)(O)OP(=O)(O)O)[C@@H](O)[C@H]1O
Kind of series: radiolabelled uptake into E. coli YZ2 cells, filter assay. Format: cell-based, Phaeodactylum tricornutum. The note with it: whole-cell uptake; labelled compound ([α-32P]ATP).
A word on the Km: it is the substrate concentration at which the rate is half of its maximum. As for B1, the Km amounted to 186.0 ± 21.1 µM.
